Test results: ChEMBL document CHEMBL5370693, “Kinases Controlling Stability of the Oncogenic MYCN Protein” (ACS Med Chem Lett, 2023)
Blank lines part the entries; values can stand above or below the molecule they belong to. The source made the active and inactive calls. The rule behind the calls is not given here.

Tests used:
Format in all cases: cell-based
[1] = biological target: Serine/threonine-protein kinase 38-like (Homo sapiens) (UniProt Q9Y2H1); assay: Inhibition of NDR2 in human SKNBE2 cells assessed as depletion of MYCN protein at 10 uM measured after 24 hrs in presence of BEZ235 and Cx4945 by Western blot analysis
Serine/threonine-protein kinase 38-like (Homo sapiens), sequence (Q9Y2H1 2-464 limits assumed): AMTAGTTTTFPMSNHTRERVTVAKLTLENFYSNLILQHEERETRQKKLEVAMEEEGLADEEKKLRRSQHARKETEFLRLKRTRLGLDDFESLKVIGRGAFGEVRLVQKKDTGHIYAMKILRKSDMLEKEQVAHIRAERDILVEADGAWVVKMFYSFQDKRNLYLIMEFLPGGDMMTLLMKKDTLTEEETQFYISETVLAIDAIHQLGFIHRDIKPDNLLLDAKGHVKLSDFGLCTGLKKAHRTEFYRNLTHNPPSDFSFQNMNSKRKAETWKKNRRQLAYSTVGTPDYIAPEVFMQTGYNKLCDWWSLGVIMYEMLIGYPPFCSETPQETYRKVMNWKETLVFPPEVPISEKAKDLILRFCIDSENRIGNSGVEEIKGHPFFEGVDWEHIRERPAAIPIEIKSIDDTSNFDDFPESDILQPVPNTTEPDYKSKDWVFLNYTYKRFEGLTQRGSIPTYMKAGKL

[2] = biological target: Serine/threonine-protein kinase 38-like (Homo sapiens) (UniProt Q9Y2H1); assay: Inhibition of NDR2 in human SKNBE2 cells assessed as depletion of MYCN protein at 10 uM measured after 24 hrs in presence of BEZ235 by Western blot analysis
[3] = biological target: Serine/threonine-protein kinase 38-like (Homo sapiens) (UniProt Q9Y2H1); assay: Inhibition of NDR2 in human SKNBE2 cells assessed as depletion of MYCN protein at 10 uM measured after 24 hrs in presence of CHIR-124, BEZ235 and Cx4945 by Western blot analysis
[4] = biological target: Serine/threonine-protein kinase 38-like (Homo sapiens) (UniProt Q9Y2H1); assay: Inhibition of NDR2 in human SKNBE2 cells assessed as decreased accumulation of MYCN protein measured after 24 hrs by Western blot analysis
[5] = biological target: Serine/threonine-protein kinase 38-like (Homo sapiens) (UniProt Q9Y2H1); assay: Inhibition of NDR2 in human SKNBE2 cells assessed as depletion of MYCN protein at 10 uM measured after 24 hrs in presence of CHIR-124 and BEZ235 by Western blot analysis
[6] = biological target: Serine/threonine-protein kinase 38-like (Homo sapiens) (UniProt Q9Y2H1); assay: Binding affinity to STK38L in human SKNBE2 cells assessed as effect on thermal stability at 49 degC incubated for 3 hrs by CETSA assay
[7] = biological target: Serine/threonine-protein kinase 38-like (Homo sapiens) (UniProt Q9Y2H1); assay: Inhibition of NDR2 in human SKNBE2 cells assessed as depletion of MYCN protein at 10 uM measured after 24 hrs in presence of CHIR-124 by Western blot analysis
[8] = biological target: Serine/threonine-protein kinase 38-like (Homo sapiens) (UniProt Q9Y2H1); assay: Inhibition of NDR2 in human SKNBE2 cells assessed as depletion of MYCN protein at 10 uM measured after 24 hrs in presence of Cx4945 by Western blot analysis
[9] = biological target: T1, N-myc proto-oncogene protein (Homo sapiens) (UniProt P04198); assay: Induction of MYCN degradation in human SKNBE2 cells at 5 to 15 uM incubated for 24 hrs by Western blot analysis; settings: dose 5-15 µM
T1 sequence (whole entry): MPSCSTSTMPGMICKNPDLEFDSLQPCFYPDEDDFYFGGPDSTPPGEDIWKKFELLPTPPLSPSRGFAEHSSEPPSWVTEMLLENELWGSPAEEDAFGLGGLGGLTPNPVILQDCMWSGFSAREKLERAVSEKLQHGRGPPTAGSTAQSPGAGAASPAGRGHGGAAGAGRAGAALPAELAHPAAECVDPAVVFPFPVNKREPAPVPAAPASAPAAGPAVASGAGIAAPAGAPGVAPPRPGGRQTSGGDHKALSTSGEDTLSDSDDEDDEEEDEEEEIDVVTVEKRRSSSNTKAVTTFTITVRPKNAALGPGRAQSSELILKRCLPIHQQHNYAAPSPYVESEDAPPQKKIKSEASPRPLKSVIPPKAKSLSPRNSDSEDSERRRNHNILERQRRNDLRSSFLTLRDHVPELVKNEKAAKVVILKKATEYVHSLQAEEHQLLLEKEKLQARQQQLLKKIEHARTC

[10] = biological target: T1, N-myc proto-oncogene protein (Homo sapiens); assay: Induction of MYCN degradation in human SKNBE2 cells incubated for 24 hrs by Western blot analysis; settings: dose 1-50 µM
[11] = biological target: T1, N-myc proto-oncogene protein (Homo sapiens); assay: Induction of MYCN degradation in human SKNBE2 cells at 5 uM incubated for 24 hrs by Western blot analysis
[12] = biological target: T2, Serine/threonine-protein kinase Chk1 (Homo sapiens) (UniProt O14757); assay: Inhibition of CHK1 in human SKNBE2 cells assessed as depletion of MYCN protein at >1 uM incubated for 24 hrs by Western blotting analysis
T2 sequence (whole entry): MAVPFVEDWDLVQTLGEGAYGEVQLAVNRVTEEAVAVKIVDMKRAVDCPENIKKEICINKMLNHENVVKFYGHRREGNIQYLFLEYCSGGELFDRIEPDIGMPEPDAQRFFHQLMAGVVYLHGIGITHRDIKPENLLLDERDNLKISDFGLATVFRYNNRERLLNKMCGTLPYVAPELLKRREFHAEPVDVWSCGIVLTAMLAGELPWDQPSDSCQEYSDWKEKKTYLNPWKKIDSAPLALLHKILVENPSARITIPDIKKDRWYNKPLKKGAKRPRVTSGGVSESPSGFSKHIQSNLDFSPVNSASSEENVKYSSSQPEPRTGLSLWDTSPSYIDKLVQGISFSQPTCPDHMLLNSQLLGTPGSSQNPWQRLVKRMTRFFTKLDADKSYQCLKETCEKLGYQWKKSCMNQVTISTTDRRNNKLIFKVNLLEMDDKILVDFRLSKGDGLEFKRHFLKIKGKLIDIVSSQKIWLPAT

[13] = biological target: Serine/threonine-protein kinase 38-like (Homo sapiens) (UniProt Q9Y2H1); assay: Inhibition of NDR2 in human SKNBE2 cells assessed as depletion of MYCN protein at 10 uM measured after 24 hrs in presence of CHIR-124 and Cx4945 by Western blot analysis
SKNBE2 [14] = assay: Inhibition of CK2 in human SKNBE2 cells assessed as reduction in MYCN/GADPH protein ratio at 20 uM incubated for 24 hrs in presence of CHIR-124/BEZ235 by Western blotting analysis
[15] = biological target: T1, N-myc proto-oncogene protein (Homo sapiens); assay: Induction of MYCN degradation in human SKNBE2 cells at 45 uM incubated for 24 hrs by Western blot analysis
SKNBE2 [16] = assay: Inhibition of PI3K in human SKNBE2 cells assessed as degradation of MYCN protein at 10 to 15 uM incubated for 24 hrs by Western blotting analysis; settings: dose 10-15 µM
SKNBE2 [17] = assay: Inhibition of PI3K in human SKNBE2 cells assessed as depletion of MYCN protein at 5 uM measured after 24 hrs in presence of CHIR-124 by Western blot analysis
SKNBE2 [18] = assay: Inhibition of PI3K in human SKNBE2 cells assessed as depletion of MYCN protein at 5 uM measured after 24 hrs in presence of Cx4945 by Western blot analysis
SKNBE2 [19] = assay: Inhibition of PI3K in human SKNBE2 cells assessed as depletion of MYCN protein at 5 uM measured after 24 hrs in presence of NG25 by Western blot analysis
SKNBE2 [20] = assay: Inhibition of PI3K in human SKNBE2 cells assessed as depletion of MYCN protein at 5 uM measured after 24 hrs in presence of NG25 and CHIR-124 by Western blot analysis
SKNBE2 [21] = assay: Inhibition of PI3K in human SKNBE2 cells assessed as degradation of MYCN protein at 5 to 10 uM incubated for 24 hrs by Western blotting analysis; settings: dose 5-10 µM
SKNBE2 [22] = assay: Inhibition of PI3K in human SKNBE2 cells assessed as depletion of MYCN protein at 5 uM measured after 24 hrs in presence of Cx4945 and CHIR-124 by Western blot analysis
SKNBE2 [23] = assay: Inhibition of PI3K in human SKNBE2 cells assessed as reduction in MYCN/GADPH protein ratio at 5 uM incubated for 24 hrs in presence of Cx945 by Western blotting analysis
SKNBE2 [24] = assay: Inhibition of PI3K in human SKNBE2 cells assessed as reduction in MYCN/GADPH protein ratio at 5 uM incubated for 24 hrs in presence of […]/CHIR-124 by Western blotting analysis
SKNBE2 [25] = assay: Inhibition of PI3K in human SKNBE2 cells assessed as reduction in MYCN/GADPH protein ratio at 5 uM incubated for 24 hrs in presence of CHIR-124 by Western blotting analysis
SKNBE2 [26] = assay: Inhibition of PI3K in human SKNBE2 cells assessed as depletion of MYCN protein at 5 uM measured after 24 hrs in presence of NG25, Cx4945 and CHIR-124 by Western blot analysis
SKNBE2 [27] = assay: Inhibition of PI3K in human SKNBE2 cells assessed as depletion of MYCN protein at 5 uM measured after 24 hrs in presence of Cx4945 and NG25 by Western blot analysis
[28] = biological target: T1, N-myc proto-oncogene protein (Homo sapiens); assay: Induction of MYCN degradation in human SKNBE2 cells at 5 to 50 uM incubated for 24 hrs by Western blot analysis; settings: dose 5-50 µM

SMILES: CCN1CCN(Cc2ccc(NC(=O)c3ccc(C)c(Oc4ccnc5[nH]ccc45)c3)cc2C(F)(F)F)CC1
inhibition [1]: Active
inhibition [2]: Active
inhibition [3]: Active
inhibition [4]: Dose-Dependent Effect
inhibition [5]: Active
Activity [6]: inactive
inhibition [7]: Active
inhibition [8]: inactive

SMILES: COc1cc(C)c(Sc2cnc(NC(=O)c3ccc(CNC(C)C(C)(C)C)cc3)s2)cc1C(=O)N1CCN(C(C)=O)CC1 (stereo not given)
Activity [10]: Dose-Dependent Effect

SMILES: CC(C)CCOc1ccc2c(c1)OCC(c1ccc(O)c(O)c1)C2 (stereo not given)
Activity [11]: Active

SMILES: Cn1cc(-c2[nH]c3cc(NC(=O)[C@H](N)C4CCCCC4)cc4c3c2C=NNC4=O)cn1
inhibition [12]: Active

SMILES: CS(=O)(=O)N1CCN(Cc2cc3nc(-c4cccc5[nH]ncc45)nc(N4CCOCC4)c3s2)CC1
inhibition (SKNBE2 [16]): inactive

SMILES: Cn1c(=O)n(-c2ccc(C(C)(C)C#N)cc2)c2c3cc(-c4cnc5ccccc5c4)ccc3ncc21
inhibition (SKNBE2 [17]): Active
inhibition (SKNBE2 [18]): Active
inhibition (SKNBE2 [19]): Active
inhibition (SKNBE2 [20]): Active
inhibition (SKNBE2 [21]): inactive
inhibition (SKNBE2 [22]): Active
inhibition (SKNBE2 [23]): Active
inhibition (SKNBE2 [24]): Active
inhibition (SKNBE2 [25]): Active
inhibition (SKNBE2 [26]): Active
inhibition (SKNBE2 [27]): Active

The next lines start with results.

Activity [9]: Active
SMILES: CCCCCCOc1ccc2c(=O)c(-c3ccc(O)c(O)c3)coc2c1

inhibition [4]: Dose-Dependent Effect
SMILES: CCN1CCN(c2ccc(Nc3cc(N(C)C(=O)Nc4c(Cl)c(OC)cc(OC)c4Cl)ncn3)cc2)CC1

inhibition [4]: Dose-Dependent Effect
SMILES: COc1cc(N2CCC(N3CCN(C)CC3)CC2)ccc1Nc1ncc(Cl)c(Nc2ccccc2S(=O)(=O)C(C)C)n1

inhibition [13]: Active
SMILES: O=C(O)c1ccc2c(c1)nc(Nc1cccc(Cl)c1)c1ccncc12
inhibition (SKNBE2 [14]): Active

Activity [15]: Active
SMILES: CC(C)CCOc1ccc2occ(-c3ccc(O)c(O)c3)c(=O)c2c1

Activity [28]: Active
SMILES: CCCOc1ccc2c(=O)c(-c3ccc(O)c(O)c3)coc2c1
